Measured values from patent KR20210056931A, “피리메타민을 유효성분으로 포함하는 면역 관련 질환의 치료 또는 예방용 약학 조성물” (priority 2019, dated 2021).
“And” between values parts separate entries of the source, which are not always exact repeats. Equal entries are not always repeated.

Key:
TNF-α [1] = test: TNF-α expression inhibition in RAW264.7 macrophages vs PS1145 (ELISA), Experiment 1-1; assay type: cell-based; details: Fig. 1
TNF-α [2] = test: TNF-α expression inhibition in Raw264.7, comparison with DMARDs, Experiment 2-1; assay type: cell-based; details: for TNF-α expression: 6 h pretreatment, LPS 10 ng/mL, MTX 344 nM, HCQ 610 nM, PYR 50 ng/mL, CsA 391 ng/mL, AZA 25 ng/mL, SFZ 750 ng/mL
[3] = test system: rheumatoid arthritis model, DBA-1J Mice [류마티스 관절염 모델]; test: Arthritis score in rheumatoid arthritis animal model, dose regimen study, Experiment 6; assay type: in vivo, mouse
[4] = test system: rheumatoid arthritis model, DBA-1J Mice [류마티스 관절염 모델]; test: Paw edema in rheumatoid arthritis animal model, dose regimen study, Experiment 6; assay type: in vivo, mouse; details: for Paw edema, HL, mean / Paw edema, HR, mean / Paw edema, HL, individual animal / Paw edema, HR, individual animal: Day 14; for Paw edema, HL, individual animal / Paw edema, HR, individual animal: listed as Py

CCc1nc(N)nc(N)c1-c1ccc(Cl)cc1 [피리메타민, Pyrimethamine]
TNF-α expression (TNF-α [1]; pyrimethamine 2, 10, 50 ng/ml): TNF-α의 발현량이 현저하게 줄어들었으며
TNF-α expression compared with PS1145 (TNF-α [1]; pyrimethamine 10 or 50 ng/ml vs PS1145 20 uM): 비교예(PS1145)에 비해 TNF-α의 발현이 보다 현저하게 줄어드는
TNF-α expression (TNF-α [2]; 2hr): 101.3 pg/mL
TNF-α expression (TNF-α [2]; 24hr): 963.4 pg/mL
TNF-α expression inhibition compared with comparative examples (TNF-α [2]; drug treatment 8 h or 24 h, pyrimethamine 50 ng/ml): 비교예들에 비해 TNF-α의 발현량을 월등히 억제하였고
Arthritis score ([3]; Day 0, G7: Py 1 mg/kg/day QD IP): 2.5±1.0 total score
Arthritis score ([3]; Day 0, G8: Py 1 mg/kg/day BID PO): 2.5±1.0 total score
Arthritis score ([3]; Day 0, G9: Py 1 mg/kg/day QD PO): 2.5±1.0 total score
Arthritis score ([3]; Day 0, G10: Py 3 mg/kg/day BID PO): 2.5±1.0 total score
Arthritis score ([3]; Day 0, G11: Py 5 mg/kg QD PO): 2.5±1.2 total score
Arthritis score ([3]; Day 0, G12: Py 15 mg/kg/day QD PO): 2.5±1.0 total score
Arthritis score ([3]; Day 2, G7: Py 1 mg/kg/day QD IP): 4.7±1.6 total score
Arthritis score ([3]; Day 2, G8: Py 1 mg/kg/day BID PO): 4.8±0.8 total score
Arthritis score ([3]; Day 2, G9: Py 1 mg/kg/day QD PO): 4.7±1.4 total score
Arthritis score ([3]; Day 2, G10: Py 3 mg/kg/day BID PO): 4.5±1.0 total score
Arthritis score ([3]; Day 2, G11: Py 5 mg/kg QD PO): 4.3±2.0 total score
Arthritis score ([3]; Day 2, G12: Py 15 mg/kg/day QD PO): 4.2±1.2 total score
Arthritis score ([3]; Day 5, G7: Py 1 mg/kg/day QD IP): 7.2±1.9 total score
Arthritis score ([3]; Day 5, G8: Py 1 mg/kg/day BID PO): 7.0±1.3 total score
Arthritis score ([3]; Day 5, G9: Py 1 mg/kg/day QD PO): 6.8±1.7 total score
Arthritis score ([3]; Day 5, G10: Py 3 mg/kg/day BID PO): 6.2±2.4 total score
Arthritis score ([3]; Day 5, G11: Py 5 mg/kg QD PO): 5.8±2.5 total score
Arthritis score ([3]; Day 5, G12: Py 15 mg/kg/day QD PO): 5.5±1.5 total score
Arthritis score ([3]; Day 7, G7: Py 1 mg/kg/day QD IP): 9.2±1.5 total score
Arthritis score ([3]; Day 7, G8: Py 1 mg/kg/day BID PO): 9.5±1.5 total score
Arthritis score ([3]; Day 7, G9: Py 1 mg/kg/day QD PO): 9.3±2.0 total score
Arthritis score ([3]; Day 7, G10: Py 3 mg/kg/day BID PO): 7.8±2.9 total score
Arthritis score ([3]; Day 7, G11: Py 5 mg/kg QD PO): 6.7±2.2 total score
Arthritis score ([3]; Day 7, G12: Py 15 mg/kg/day QD PO): 6.3±2.0 total score
Arthritis score ([3]; Day 9, G7: Py 1 mg/kg/day QD IP): 9.8±1.9 total score
Arthritis score ([3]; Day 9, G8: Py 1 mg/kg/day BID PO): 10.3±2.2 total score
Arthritis score ([3]; Day 9, G9: Py 1 mg/kg/day QD PO): 10.5±2.7 total score
Arthritis score ([3]; Day 9, G10: Py 3 mg/kg/day BID PO): 8.2±2.9 total score
Arthritis score ([3]; Day 9, G11: Py 5 mg/kg QD PO): 7.5±3.0 total score
Arthritis score ([3]; Day 9, G12: Py 15 mg/kg/day QD PO): 7.5±2.1 total score
Arthritis score ([3]; Day 12, G7: Py 1 mg/kg/day QD IP): 11.2±2.5 total score
Arthritis score ([3]; Day 12, G8: Py 1 mg/kg/day BID PO): 11.7±2.7 total score
Arthritis score ([3]; Day 12, G9: Py 1 mg/kg/day QD PO): 12.0±2.6 total score
Arthritis score ([3]; Day 12, G10: Py 3 mg/kg/day BID PO): 9.8±2.9 total score
Arthritis score ([3]; Day 12, G11: Py 5 mg/kg QD PO): 8.8±2.5 total score
Arthritis score ([3]; Day 12, G12: Py 15 mg/kg/day QD PO): 7.7±2.1 total score
Arthritis score ([3]; Day 14, G7: Py 1 mg/kg/day QD IP): 11.7±2.7 total score
Arthritis score ([3]; Day 14, G8: Py 1 mg/kg/day BID PO): 12.3±2.9 total score
Arthritis score ([3]; Day 14, G9: Py 1 mg/kg/day QD PO): 12.7±2.9 total score
Arthritis score ([3]; Day 14, G10: Py 3 mg/kg/day BID PO): 10.5±3.0 total score
Arthritis score ([3]; Day 14, G11: Py 5 mg/kg QD PO): 9.5±2.6 total score
Arthritis score ([3]; Day 14, G12: Py 15 mg/kg/day QD PO): 8.2±2.0 total score
Arthritis score (in words) ([3]; Py 1 mg/kg/day QD PO and IP, 1 and 3 mg/kg/day BID PO, 5 mg/kg/day QD PO): 관절염 지수가 개선되지 않은
Arthritis score (in words) ([3]; Py 15 mg/kg/day QD PO): 관절염 지수가 현저하게 감소
Paw edema, HL, mean ([4]; G7: Py 1 mg/kg/day QD IP): 0.17 mL
Paw edema, HR, mean ([4]; G7: Py 1 mg/kg/day QD IP): 0.17 mL
Paw edema, HL, individual animal ([4]; G7: Py 1 mg/kg/day QD IP): 0.18 mL and 0.19 mL and 0.17 mL and 0.12 mL and 0.14 mL
Paw edema, HR, individual animal ([4]; G7: Py 1 mg/kg/day QD IP): 0.17 mL and 0.18 mL and 0.14 mL and 0.19 mL
Paw edema, HL, mean ([4]; G8: Py 1 mg/kg/day BID PO): 0.16 mL
Paw edema, HR, mean ([4]; G8: Py 1 mg/kg/day BID PO): 0.17 mL
Paw edema, HL, individual animal ([4]; G8: Py 1 mg/kg/day BID PO): 0.14 mL and 0.13 mL and 0.17 mL and 0.19 mL and 0.20 mL
Paw edema, HR, individual animal ([4]; G8: Py 1 mg/kg/day BID PO): 0.18 mL and 0.19 mL and 0.17 mL and 0.14 mL
Paw edema, HL, mean ([4]; G9: Py 1 mg/kg/day QD PO): 0.17 mL
Paw edema, HR, mean ([4]; G9: Py 1 mg/kg/day QD PO): 0.18 mL
Paw edema, HL, individual animal ([4]; G9: Py 1 mg/kg/day QD PO): 0.13 mL and 0.20 mL and 0.17 mL and 0.19 mL
Paw edema, HR, individual animal ([4]; G9: Py 1 mg/kg/day QD PO): 0.19 mL and 0.16 mL and 0.17 mL
Paw edema, HL, mean ([4]; G10: Py 3 mg/kg/day BID PO): 0.15 mL
Paw edema, HR, mean ([4]; G10: Py 3 mg/kg/day BID PO): 0.16 mL
Paw edema, HL, individual animal ([4]; G10: Py 3 mg/kg/day BID PO): 0.16 mL and 0.20 mL and 0.13 mL and 0.15 mL
Paw edema, HR, individual animal ([4]; G10: Py 3 mg/kg/day BID PO): 0.17 mL and 0.14 mL and 0.16 mL and 0.15 mL and 0.19 mL
Paw edema, HL, mean ([4]; G11: Py 5 mg/kg QD PO): 0.18 mL
Paw edema, HR, mean ([4]; G11: Py 5 mg/kg QD PO): 0.18 mL
Paw edema, HL, individual animal ([4]; G11: Py 5 mg/kg QD PO): 0.16 mL and 0.20 mL and 0.19 mL and 0.17 mL and 0.14 mL
Paw edema, HR, individual animal ([4]; G11: Py 5 mg/kg QD PO): 0.19 mL and 0.20 mL and 0.16 mL
Paw edema, HL, mean ([4]; G12: Py 15 mg/kg/day QD PO): 0.14 mL
Paw edema, HR, mean ([4]; G12: Py 15 mg/kg/day QD PO): 0.14 mL
Paw edema, HL, individual animal ([4]; G12: Py 15 mg/kg/day QD PO): 0.19 mL and 0.13 mL and 0.11 mL and 0.14 mL
Paw edema, HR, individual animal ([4]; G12: Py 15 mg/kg/day QD PO): 0.11 mL and 0.16 mL and 0.14 mL and 0.13 mL and 0.15 mL
Paw edema (in words) ([4]; Py 15 mg/kg/day QD PO): 피리메타민 15 mg/kg/day QD 경구투여군에서만 개선
